Reference: patent US20260242419A1, “A CYCLIC PEPTIDE FOR TRAPPING INTERLEUKIN-1 BETA” (Merck Sharp & Dohme LLC, priority 2023, published 2026)
pIC50: −log10 of the molar value. Starred links: 1 amine or outer side, 2 acyl side, 3 side chain; linkers in the order of their positions; H or OH if unused. Non-standard residues stand in square brackets, D forms with d. Residues, ends and D or L forms follow the SMILES beside them. dPro(4R-(4-pyridylmethyl)) = O=C(O)[C@H]1C[C@@H](Cc2ccncc2)CN1; Trp(βS-Me,4-F) = C[C@@H](c1c[nH]c2cccc(F)c12)[C@H](N)C(=O)O; Bip(4'-COOH) = N[C@@H](Cc1ccc(-c2ccc(C(=O)O)cc2)cc1)C(=O)O; Ala(1-bicyclo(1.1.1)pentyl) = N[C@@H](CC12CC(C1)C2)C(=O)O; X28 = CC(=O)N1CCN(c2ncc(C[C@H](N[*:1])C(=O)[*:2])cn2)CC1; X37 = CC(=O)N1CCN(c2ccc(C[C@H](N[*:1])C(=O)[*:2])cn2)CC1; dPro(4R-Bzl(4-F)) = O=C(O)[C@H]1C[C@@H](Cc2ccc(F)cc2)CN1; Ala(pyrimidin-5-yl) = N[C@@H](Cc1cncnc1)C(=O)O; Phe(4-COOH) = N[C@@H](Cc1ccc(C(=O)O)cc1)C(=O)O; Pro(cis-4-F) = O=C(O)[C@@H]1C[C@H](F)CN1; AEF = NCCOc1ccc(C[C@H](N)C(=O)O)cc1; 4Pal = N[C@@H](Cc1ccncc1)C(=O)O; Dab = NCC[C@H](N)C(=O)O; Dap = NC[C@H](N)C(=O)O; Aib = CC(C)(N)C(=O)O

Molecular target: T1, IL-1β (Homo sapiens, UniProt P01584)
T1 construct: purchased BioLegend 579404
T1 sequence (P01584 117-269): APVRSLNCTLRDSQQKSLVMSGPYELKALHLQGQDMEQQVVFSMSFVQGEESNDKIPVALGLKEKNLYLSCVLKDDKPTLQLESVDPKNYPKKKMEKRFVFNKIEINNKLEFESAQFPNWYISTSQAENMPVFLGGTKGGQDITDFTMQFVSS
Assay: IL-6 assay in MRC5 cells: inhibition of IL-1β induced IL-6 secretion (AlphaLISA)
Format: cell-based
Conditions: inhibition of IL-1β induced IL-6 secretion in MRC5 cells; read-out: MRC5 IC50
Procedure, shortened: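 Compound was pre-incubated 1 h at ambient temperature with recombinant human IL-1β at 2λ EC80 before adding human lung fibroblast MRC5 cells (3000/well) in EMEM with 0.025% BSA. After overnight culture at 37 °C, 5% CO2, secreted IL-6 in conditioned medium was measured by AlphaLISA; IC50 from 4-parameter logistic fits.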

| SMILES | pIC50 |
| --- | --- |
| CC(=O)N1CCN(c2ccc(C[C@@H]3NC(=O)[C@H]4C[C@@H](Cc5ccc(F)cc5)CN4C(=O)CNC(=O)[C@H](CCN)NC(=O)[C@H](CCC(N)=O)NC(=O)[C@H](Cc4cncnc4)NC(=O)C(C)(C)NC(=O)[C@H](Cc4c[nH]c5ccccc45)NC(=O)[C@H](CCC(=O)O)NC(=O)C(C)(C)NC(=O)[C@H]([C@@H](C)c4c[nH]c5cccc(F)c45)NC(=O)[C@@H]4C[C@H](F)CN4C(=O)CNC(=O)[C@H](Cc4ccc(C(=O)O)cc4)NC(=O)[C@H](Cc4ccncc4)NC3=O)cn2)CC1 [Example 39] (cyclo([X37][4Pal][Phe(4-COOH)]G[Pro(cis-4-F)][Trp(βS-Me,4-F)][Aib]EW[Aib][Ala(pyrimidin-5-yl)]Q[Dab]G[dPro(4R-Bzl(4-F))])) | 10.20 |
| CC(=O)N1CCN(c2ncc(C[C@@H]3NC(=O)[C@H]4C[C@@H](Cc5ccc(F)cc5)CN4C(=O)CNC(=O)[C@H](CCN)NC(=O)[C@H](CCC(N)=O)NC(=O)[C@H](Cc4cncnc4)NC(=O)C(C)(C)NC(=O)[C@H](Cc4c[nH]c5ccccc45)NC(=O)[C@H](CCC(=O)O)NC(=O)C(C)(C)NC(=O)[C@H]([C@@H](C)c4c[nH]c5cccc(F)c45)NC(=O)[C@@H]4C[C@H](F)CN4C(=O)CNC(=O)[C@H](Cc4ccc(C(=O)O)cc4)NC(=O)[C@H](Cc4ccncc4)NC3=O)cn2)CC1 [Example 40] (cyclo([X28][4Pal][Phe(4-COOH)]G[Pro(cis-4-F)][Trp(βS-Me,4-F)][Aib]EW[Aib][Ala(pyrimidin-5-yl)]Q[Dab]G[dPro(4R-Bzl(4-F))])) | 10.32 |
| C[C@@H]1NC(=O)C(C)(C)NC(=O)[C@H]([C@@H](C)c2c[nH]c3cccc(F)c23)NC(=O)[C@@H]2C[C@H](F)CN2C(=O)CNC(=O)[C@H](Cc2ccc(C(=O)O)cc2)NC(=O)[C@H](Cc2ccncc2)NC(=O)[C@H](Cc2ccc(-c3ccc(C(=O)O)cc3)cc2)NC(=O)[C@H]2C[C@@H](Cc3ccncc3)CN2C(=O)CNC(=O)[C@H](CCN)NC(=O)[C@H](CCC(N)=O)NC(=O)[C@H](Cc2cncnc2)NC(=O)C(C)(C)NC(=O)[C@H](Cc2c[nH]c3ccccc23)NC1=O [Example 41] (cyclo([4Pal][Phe(4-COOH)]G[Pro(cis-4-F)][Trp(βS-Me,4-F)][Aib]AW[Aib][Ala(pyrimidin-5-yl)]Q[Dab]G[dPro(4R-(4-pyridylmethyl))][Bip(4'-COOH)])) | 10.54 |
| C[C@@H](c1c[nH]c2cccc(F)c12)[C@@H]1NC(=O)[C@@H]2C[C@H](F)CN2C(=O)CNC(=O)[C@H](Cc2ccc(C(=O)O)cc2)NC(=O)[C@H](Cc2ccncc2)NC(=O)[C@H](Cc2ccc(-c3ccc(C(=O)O)cc3)cc2)NC(=O)[C@H]2C[C@@H](Cc3ccncc3)CN2C(=O)CNC(=O)[C@H](CCN)NC(=O)[C@H](CCC(N)=O)NC(=O)[C@H](Cc2cncnc2)NC(=O)C(C)(C)NC(=O)[C@H](Cc2c[nH]c3ccccc23)NC(=O)[C@H](CO)NC(=O)C(C)(C)NC1=O [Example 42] (cyclo([4Pal][Phe(4-COOH)]G[Pro(cis-4-F)][Trp(βS-Me,4-F)][Aib]SW[Aib][Ala(pyrimidin-5-yl)]Q[Dab]G[dPro(4R-(4-pyridylmethyl))][Bip(4'-COOH)])) | 10.68 |
| C[C@@H](c1c[nH]c2cccc(F)c12)[C@@H]1NC(=O)[C@@H]2C[C@H](F)CN2C(=O)CNC(=O)[C@H](Cc2ccc(C(=O)O)cc2)NC(=O)[C@H](CC23CC(C2)C3)NC(=O)[C@H](Cc2ccc(-c3ccc(C(=O)O)cc3)cc2)NC(=O)[C@H]2C[C@@H](Cc3ccncc3)CN2C(=O)CNC(=O)[C@H](CCN)NC(=O)[C@H](CCC(N)=O)NC(=O)[C@H](Cc2cncnc2)NC(=O)C(C)(C)NC(=O)[C@H](Cc2c[nH]c3ccccc23)NC(=O)[C@H](CCC(=O)O)NC(=O)C(C)(C)NC1=O [Example 43] (cyclo([Bip(4'-COOH)][Ala(1-bicyclo(1.1.1)pentyl)][Phe(4-COOH)]G[Pro(cis-4-F)][Trp(βS-Me,4-F)][Aib]EW[Aib][Ala(pyrimidin-5-yl)]Q[Dab]G[dPro(4R-(4-pyridylmethyl))])) | 10.59 |
| C[C@@H](c1c[nH]c2cccc(F)c12)[C@@H]1NC(=O)[C@@H]2C[C@H](F)CN2C(=O)CNC(=O)[C@H](Cc2ccc(C(=O)O)cc2)NC(=O)[C@H](CC23CC(C2)C3)NC(=O)[C@H](Cc2ccc(-c3ccc(C(=O)O)cc3)cc2)NC(=O)[C@H]2C[C@@H](Cc3ccncc3)CN2C(=O)CNC(=O)[C@H](CCN)NC(=O)[C@H](CCC(N)=O)NC(=O)[C@H](Cc2cncnc2)NC(=O)C(C)(C)NC(=O)[C@H](Cc2c[nH]c3ccccc23)NC(=O)[C@H](CO)NC(=O)C(C)(C)NC1=O [Example 44] (cyclo([Aib]SW[Aib][Ala(pyrimidin-5-yl)]Q[Dab]G[dPro(4R-(4-pyridylmethyl))][Bip(4'-COOH)][Ala(1-bicyclo(1.1.1)pentyl)][Phe(4-COOH)]G[Pro(cis-4-F)][Trp(βS-Me,4-F)])) | 10.68 |
| C[C@@H](c1c[nH]c2cccc(F)c12)[C@@H]1NC(=O)[C@@H]2C[C@H](F)CN2C(=O)CNC(=O)[C@H](Cc2ccc(C(=O)O)cc2)NC(=O)[C@H](CC23CC(C2)C3)NC(=O)[C@H](Cc2ccc(-c3ccc(C(=O)O)cc3)cc2)NC(=O)[C@H]2C[C@@H](Cc3ccncc3)CN2C(=O)CNC(=O)[C@H](CCN)NC(=O)[C@H](CCC(N)=O)NC(=O)[C@H](Cc2ccncc2)NC(=O)C(C)(C)NC(=O)[C@H](Cc2c[nH]c3ccccc23)NC(=O)[C@H](CCC(=O)O)NC(=O)C(C)(C)NC1=O [Example 45] (cyclo([Bip(4'-COOH)][Ala(1-bicyclo(1.1.1)pentyl)][Phe(4-COOH)]G[Pro(cis-4-F)][Trp(βS-Me,4-F)][Aib]EW[Aib][4Pal]Q[Dab]G[dPro(4R-(4-pyridylmethyl))])) | 10.57 |

Results, then the molecule that gave them:

| pIC50 | SMILES |
| --- | --- |
| 10.47 | C[C@@H](c1c[nH]c2cccc(F)c12)[C@@H]1NC(=O)[C@@H]2C[C@H](F)CN2C(=O)CNC(=O)[C@H](Cc2ccc(C(=O)O)cc2)NC(=O)[C@H](CC23CC(C2)C3)NC(=O)[C@H](Cc2ccc(-c3ccc(C(=O)O)cc3)cc2)NC(=O)[C@H]2C[C@@H](Cc3ccncc3)CN2C(=O)CNC(=O)[C@H](CN)NC(=O)[C@H](CCC(N)=O)NC(=O)[C@H](Cc2cncnc2)NC(=O)C(C)(C)NC(=O)[C@H](Cc2c[nH]c3ccccc23)NC(=O)[C@H](CCC(=O)O)NC(=O)C(C)(C)NC1=O [Example 46] (cyclo([Bip(4'-COOH)][Ala(1-bicyclo(1.1.1)pentyl)][Phe(4-COOH)]G[Pro(cis-4-F)][Trp(βS-Me,4-F)][Aib]EW[Aib][Ala(pyrimidin-5-yl)]Q[Dap]G[dPro(4R-(4-pyridylmethyl))])) |
| 10.54 | C[C@@H](c1c[nH]c2cccc(F)c12)[C@@H]1NC(=O)[C@@H]2C[C@H](F)CN2C(=O)CNC(=O)[C@H](Cc2ccc(C(=O)O)cc2)NC(=O)[C@H](Cc2ccncc2)NC(=O)[C@H](Cc2ccc(-c3ccc(C(=O)O)cc3)cc2)NC(=O)[C@H]2C[C@@H](Cc3ccncc3)CN2C(=O)CNC(=O)[C@H](CN)NC(=O)[C@H](CCC(N)=O)NC(=O)[C@H](Cc2ccncc2)NC(=O)C(C)(C)NC(=O)[C@H](Cc2c[nH]c3ccccc23)NC(=O)[C@H](CCC(=O)O)NC(=O)C(C)(C)NC1=O [Example 47] (cyclo([Bip(4'-COOH)][4Pal][Phe(4-COOH)]G[Pro(cis-4-F)][Trp(βS-Me,4-F)][Aib]EW[Aib][4Pal]Q[Dap]G[dPro(4R-(4-pyridylmethyl))])) |
| 10.57 | C[C@@H](c1c[nH]c2cccc(F)c12)[C@@H]1NC(=O)[C@@H]2C[C@H](F)CN2C(=O)CNC(=O)[C@H](Cc2ccc(C(=O)O)cc2)NC(=O)[C@H](CC23CC(C2)C3)NC(=O)[C@H](Cc2ccc(-c3ccc(C(=O)O)cc3)cc2)NC(=O)[C@H]2C[C@@H](Cc3ccncc3)CN2C(=O)CNC(=O)[C@H](CN)NC(=O)[C@H](CCC(N)=O)NC(=O)[C@H](Cc2ccncc2)NC(=O)C(C)(C)NC(=O)[C@H](Cc2c[nH]c3ccccc23)NC(=O)[C@H](CCC(=O)O)NC(=O)C(C)(C)NC1=O [Example 48] (cyclo([4Pal]Q[Dap]G[dPro(4R-(4-pyridylmethyl))][Bip(4'-COOH)][Ala(1-bicyclo(1.1.1)pentyl)][Phe(4-COOH)]G[Pro(cis-4-F)][Trp(βS-Me,4-F)][Aib]EW[Aib])) |
| 10.33 | CC(=O)NCCOc1ccc(C[C@@H]2NC(=O)[C@H]3C[C@@H](Cc4ccncc4)CN3C(=O)CNC(=O)[C@H](CCN)NC(=O)[C@H](CCC(N)=O)NC(=O)[C@H](Cc3cncnc3)NC(=O)C(C)(C)NC(=O)[C@H](Cc3c[nH]c4ccccc34)NC(=O)[C@H](CCC(=O)O)NC(=O)C(C)(C)NC(=O)[C@H]([C@@H](C)c3c[nH]c4cccc(F)c34)NC(=O)[C@@H]3C[C@H](F)CN3C(=O)CNC(=O)[C@H](Cc3ccc(C(=O)O)cc3)NC(=O)[C@H](Cc3ccncc3)NC2=O)cc1 [Example 49] (cyclo([AEF](Ac)[4Pal][Phe(4-COOH)]G[Pro(cis-4-F)][Trp(βS-Me,4-F)][Aib]EW[Aib][Ala(pyrimidin-5-yl)]Q[Dab]G[dPro(4R-(4-pyridylmethyl))])) |
| 10.36 | CC(=O)NCCOc1ccc(C[C@@H]2NC(=O)[C@H]3C[C@@H](Cc4ccncc4)CN3C(=O)CNC(=O)[C@H](CCN)NC(=O)[C@H](CCC(N)=O)NC(=O)[C@H](Cc3cncnc3)NC(=O)C(C)(C)NC(=O)[C@H](Cc3c[nH]c4ccccc34)NC(=O)[C@H](CCC(=O)O)NC(=O)C(C)(C)NC(=O)[C@H]([C@@H](C)c3c[nH]c4cccc(F)c34)NC(=O)[C@@H]3C[C@H](F)CN3C(=O)CNC(=O)[C@H](Cc3ccc(C(=O)O)cc3)NC(=O)[C@H](CC34CC(C3)C4)NC2=O)cc1 [Example 50] (cyclo([AEF](Ac)[Ala(1-bicyclo(1.1.1)pentyl)][Phe(4-COOH)]G[Pro(cis-4-F)][Trp(βS-Me,4-F)][Aib]EW[Aib][Ala(pyrimidin-5-yl)]Q[Dab]G[dPro(4R-(4-pyridylmethyl))])) |
